How the values were obtained:
[1] = system: inflammatory cells, eosinophils, CD4+ T cells in BALF; experiment: Inflammatory cell numbers in BALF by flow cytometry; format: in vivo, ova s/c BALB/c mice; settings: 100 mg/kg twice daily for 5 days
Procedure: The change of the number of specific immune cells caused by compounds may be investigated in the bronchoalveolar lavage fluid (BALF) of Ova S/C mice. Therefore, a bronchoalveolar lavage may be carried out followed by the lysis of red blood cells. Incubation of cell-type specific antibodies with BALF may allow the quantification of leukocytes such as eosinophils and CD4^+ T-lymphocytes using flow cytometry.
Determination of anti-inflammatory properties of compounds were investigated in an allergen induced mouse model of asthma. At the day of analysis, bronchoalveolar lavage (BAL) was performed with 1 mL of Ca2+ and Mg2+ free PBS. Red blood cells (RBCs) were lysed using BD red blood cell lysis buffer (BD Pharmingen, San Jose, Calif.). BALF was split into four different tubes and non-specific binding to Fc receptors was blocked for 5 minutes using 6 μg/mL of 2.4G2 mouse BD Fc Block™ (BD Pharmingen, San Jose, Calif.). BALF cells were stained for 30 minutes at 4° C. in the dark with 100 μL BSA stain buffer (BD Pharmingen, San Jose, Calif.) containing the final concentrations of the following antibodies: anti-mouse CD45 APC (1:1000, 30-F11, Affymetrix eBiosciences, San Diego, Calif.), FITC rat anti-mouse CD4 (1:500, RM4-5, BD Pharmingen, San Jose, Calif.), PE Rat Anti-Mouse Siglec F (1:500, E50-2440, BD Pharmingen, San Jose, Calif.) and mouse CCR3 PE-conjugated antibody (1:40, 83101, R&D systems Inc, Minneapolis, Minn.). Flow cytometric studies were done using the BD FACS Calibur (BD Pharmingen, San Jose, Calif.) and data analyzed subsequently using Cell Quest pro software (BD Pharmingen, San Jose, Calif.). General gating for immune cells were followed. Total inflammatory cell count was obtained by running all samples on high (60 μL/min) for 180 seconds. The gated anti-mouse CD45 positive events in the fourth channel (FL4) were used to calculate the total inflammatory cell count as cells/mL. The frequencies of CCR3+/Siglec F were used for quantification of eosinophils and CD4+ for CD4+ T cell populations in their respective gates were multiplied by the total inflammatory cell count (cells/mL) to obtain the differential cell population. Statistical analysis: Data were analyzed using GraphPad Prism 4 (GraphPad Software, San Diego, Calif.) and expressed as mean±SEM. One-way analysis of variance (ANOVA) with Dunnet post hoc test or two-way ANOVA with Bonferroni post hoc test were performed for statistical difference for multiple groups. FIGS. 7A-7C show effects of compounds on inflammatory cells. Groups of 10 ova s/c BALB/c mice were administered compounds at 100 mg/kg twice daily for 5 days. BALF was harvested from each animal and used for (A) quantification of total inflammatory cells; (B) eosinophils; (C) CD4^+ T cells. Cells were stained with mouse CD45^+ APC antibody, and samples were analyzed with BD FACS Calibur on high flow rate (60 μl/minute) for 180 seconds. The gated positive events in the fourth channel (FL4) were used to calculate the total inflammatory cell count as cells/ml. Quantification of specific leukocyte population (B) eosinophils (C) CD4^+ T cell populations were stained with specific antibodies and detected by flow cytometry. Data represent mean±SEM from 10 mice in each group. *, **, and *** indicate p<0.05, p<0.01, and p<0.001 significance, respectively, compared to vehicle treated ova s/c BALB/c mice.

mucin = experiment: Mucin production in airway epithelium, morphometric quantification; format: in vivo, Balb/c mice; settings: 100 mg/kg twice for five days
Procedure: Pharmacodynamic effects of compounds in respect to mucus production were investigated after the AHR measurement by harvesting the lungs of treated and non-treated Ova S/C mice followed by formalin fixation and paraffin embedding. Sections were prepared from one lobe (including large and small airways) and processed for standard H&E (for general histopathology and inflammation) and PAS (for mucous cell; as cells/mm of basement membrane) staining. FIGS. 10A-10B show compound effects on mucin production: (A) Morphometric quantification of mucin volume density and (B) representative images of mucin (red) in the airway epithelium (green) with periodic acid fluorescent Schiff's stain. Balb/c mice were administered compounds at 100 mg/kg twice for five days. Data represent mean±SEM from 5-7 mice in each group. Scale bar represents 100 μm.

[2] = Microsomal stability, mouse liver microsomes; format: in vitro ADME; settings: 10 μM compound
Procedure: The metabolic stability of compounds in vivo can be estimated with the stability of compounds in the presence of liver microsomes. Therefore, 4 μL of 1 mM DMSO solution of test compound at a final concentration of 10 μM were preincubated at 37° C. for 5 minutes on a digital heating shaking dry bath (Fischer scientific, Pittsburgh, Pa.) in a mixture containing 282 μL of water, 80 μL of phosphate buffer (0.5 M, pH 7.4) 20 μL of NADPH Regenerating System Solution A (BD Bioscience, San Jose, Calif.) and 4 μL of NADPH Regenerating System Solution B (BD Bioscience, San Jose, Calif.) in a total volume of 391.2 μL. Following preincubation, the reaction was initiated by addition of 8.8 μL of either human liver microsomes (BD Gentest, San Jose, Calif.) or mouse liver microsomes (Life technologies, Rockford, Ill.) at a protein concentration of 0.5 mg/mL. Aliquots of 50 μL were taken at time intervals of 0 (without microsomes), 10, 20, 30, 40, 50 and 60 minutes. Each aliquot was added to 100 μL of cold acetonitrile solution containing 1 μM of verapamil HCL as internal standard. This was followed by sonication for 10 seconds and centrifugation at 10,000 rpm for 5 minutes. 100 μL of the supernatant was transferred into Spin-X HPLC filter tubes (Corning Incorporated, NY) and centrifuged at 13,000 rpm for 5 minutes. The filtrate was diluted 100-fold and subsequently analyzed by LC-MS/MS with Shimadzu LCMS 8040, (Shimadzu Scientific Instruments, Columbia, Md.). The ratio of the peak areas of the internal standard and test compound was calculated for every time point and the natural log of the ratio were plotted against time to determine the linear slope (k). The metabolic rate (k*C0/C), half-life (0.693/k), and […] (V*k) were calculated, where k is the slope, C0 is the initial concentration of test compound, C is the concentration of microsomes, and V is the volume of incubation in μL per microsomal protein in mg. All experiments were repeated two time in triplicates.

C[C@H]1N=C(c2ccccc2F)c2cc(Br)ccc2-n2cnc(C(=O)O)c21 [GL-II-93, (R)-8-bromo-6-(2-fluorophenyl)-4-methyl-4H-benzo[f]imidazo[1,5-a][1,4]diazepine-3-carboxylic acid]
numbers of CD4+ T cells [1]: did reduce the numbers of eosinophils and CD4^+ T cells
numbers of eosinophils [1]: did reduce the numbers of eosinophils
production of mucin (mucin): did not change the production of mucin

CCOC(=O)c1ncn2c1[C@@H]1CCCN1C(=O)c1cc(O)ccc1-2 [RJ-02-50, ethyl (S)-7-hydroxy-9-oxo-11,12,13,13a-tetrahydro-9H-benzo[e]imidazo[5,1-c]pyrrolo[1,2-a][1,4]diazepine-1-carboxylate]
MLM % remaining after 60 min [2]: 91.1 ± 0.1%
numbers of CD4+ T cells [1]: did reduce the numbers of eosinophils and CD4^+ T cells
numbers of eosinophils [1]: did reduce the numbers of eosinophils
production of mucin (mucin): did not change the production of mucin

O=C1c2cc(O)ccc2-n2cnc(-c3cnco3)c2[C@@H]2CCCN12 [RJ-03-30, (S)-7-hydroxy-1-(oxazol-5-yl)-11,12,13,13a-tetrahydro-9H-benzo[e]imidazo[5,1-c]pyrrolo[1,2-a][1,4]diazepin-9-one]
MLM % remaining after 60 min [2]: 80.0 ± 0.3%
numbers of inflammatory cells in BALF [1]: did not modulate the numbers of inflammatory cells

C#Cc1ccc2c(c1)C(c1ccccc1F)=N[C@H](C)c1c(C(=O)O)ncn1-2 [SH-053-2′F-R-CH3-Acid, (R)-8-ethynyl-6-(2-fluorophenyl)-4-methyl-4H-benzo[f]imidazo[1,5-a][1,4]diazepine-3-carboxylic acid]
MLM % remaining after 60 min [2]: 89.0 ± 0.3%
numbers of CD4+ T cells [1]: but not CD4^+ T cells
numbers of eosinophils [1]: reduced the numbers of eosinophils
production of mucin (mucin): did not change the production of mucin
